Reference: ChEMBL document CHEMBL4725338, “Discovery of novel histone lysine methyltransferase G9a/GLP (EHMT2/1) inhibitors: Design, synthesis, and structure-activity relationships of 2,4-diamino-6-methylpyrimidines” (Bioorg Med Chem Lett, 2020)
In brackets after ≈: the same amount, converted by molar mass.

How the values were obtained:
[1] = Apparent permeability in MDCK cells; type: ADME, cell-based, Canis lupus familiaris; details: dog
[2] = biological target: T1, Histone-lysine N-methyltransferase EHMT1 (Homo sapiens, UniProt Q9H9B1); assay: Inhibition of GLP (unknown origin)
T1 sequence (Q9H9B1 whole entry): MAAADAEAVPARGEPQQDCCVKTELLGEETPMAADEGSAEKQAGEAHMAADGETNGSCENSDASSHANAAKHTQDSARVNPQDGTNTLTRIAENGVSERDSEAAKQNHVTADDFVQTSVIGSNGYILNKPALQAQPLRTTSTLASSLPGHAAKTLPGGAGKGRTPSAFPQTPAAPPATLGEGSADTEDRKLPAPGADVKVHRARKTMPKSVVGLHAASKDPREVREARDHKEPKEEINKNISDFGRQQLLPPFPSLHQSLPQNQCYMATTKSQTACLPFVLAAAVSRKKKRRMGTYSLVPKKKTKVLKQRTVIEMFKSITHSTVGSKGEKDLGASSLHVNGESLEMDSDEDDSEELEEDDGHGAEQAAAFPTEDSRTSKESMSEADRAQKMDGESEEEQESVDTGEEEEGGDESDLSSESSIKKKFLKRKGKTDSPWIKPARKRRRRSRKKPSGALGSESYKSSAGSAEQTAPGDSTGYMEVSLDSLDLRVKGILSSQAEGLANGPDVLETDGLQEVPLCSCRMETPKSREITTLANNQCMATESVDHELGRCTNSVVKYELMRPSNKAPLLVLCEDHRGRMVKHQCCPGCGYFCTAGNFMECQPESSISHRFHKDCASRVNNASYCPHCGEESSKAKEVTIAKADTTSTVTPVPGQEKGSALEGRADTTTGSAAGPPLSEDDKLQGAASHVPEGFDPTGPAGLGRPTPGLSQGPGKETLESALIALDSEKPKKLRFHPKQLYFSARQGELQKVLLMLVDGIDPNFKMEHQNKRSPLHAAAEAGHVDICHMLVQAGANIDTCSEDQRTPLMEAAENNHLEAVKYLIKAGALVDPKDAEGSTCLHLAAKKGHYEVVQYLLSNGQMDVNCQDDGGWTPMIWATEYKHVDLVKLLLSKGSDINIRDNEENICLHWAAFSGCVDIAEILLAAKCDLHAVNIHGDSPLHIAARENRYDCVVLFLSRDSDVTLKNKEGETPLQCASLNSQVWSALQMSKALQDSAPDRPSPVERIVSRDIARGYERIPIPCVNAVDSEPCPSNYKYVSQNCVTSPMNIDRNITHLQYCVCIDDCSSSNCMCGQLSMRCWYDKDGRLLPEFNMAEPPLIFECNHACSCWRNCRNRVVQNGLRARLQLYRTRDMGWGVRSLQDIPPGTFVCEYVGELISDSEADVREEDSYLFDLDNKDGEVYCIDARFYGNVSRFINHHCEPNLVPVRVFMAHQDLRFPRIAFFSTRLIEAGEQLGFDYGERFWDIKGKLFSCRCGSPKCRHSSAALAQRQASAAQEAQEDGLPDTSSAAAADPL

[3] = Aqueous solubility of the compound in pH 1.2 JP1 fluid; type: physicochemical
CYP2C8 = biological target: T2, CYP2C8 (Homo sapiens, UniProt P10632); assay: Inhibition of CYP2C8 (unknown origin) at 10 uM relative to control; type: ADME
T2 sequence (P10632 whole entry): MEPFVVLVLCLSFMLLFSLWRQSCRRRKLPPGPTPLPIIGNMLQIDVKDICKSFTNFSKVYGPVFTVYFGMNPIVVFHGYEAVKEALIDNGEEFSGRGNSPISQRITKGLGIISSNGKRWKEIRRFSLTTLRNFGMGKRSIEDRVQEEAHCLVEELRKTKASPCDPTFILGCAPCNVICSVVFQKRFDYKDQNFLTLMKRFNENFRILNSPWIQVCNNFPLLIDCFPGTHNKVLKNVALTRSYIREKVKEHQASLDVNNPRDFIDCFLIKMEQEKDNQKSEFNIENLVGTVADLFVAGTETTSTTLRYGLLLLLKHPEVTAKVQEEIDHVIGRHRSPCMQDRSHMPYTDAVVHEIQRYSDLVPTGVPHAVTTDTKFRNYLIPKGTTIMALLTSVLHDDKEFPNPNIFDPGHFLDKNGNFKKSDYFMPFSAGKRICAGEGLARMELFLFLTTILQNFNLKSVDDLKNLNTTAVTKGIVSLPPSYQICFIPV

[4] = Oral bioavailability in mouse at 10 mg/kg; type: ADME, organism-based; details: in vivo
[5] = AUC (0 to infinity) in mouse at 10 mg/kg, po; type: ADME, organism-based; design: time infinity, route oral, dose 10 mg/kg; details: in vivo

Row | SMILES | Papp [1] [×10⁻⁶ cm/s] | IC50 [2] [nM] | solubility [3] [µg/mL] | inhibition at 10 µM (CYP2C8) [%] | bioavailability [4] [%] | AUC(0-inf) [5] [µM·h]
1 | CNc1cc(C)nc(Nc2ccc(OC)c(OCCCN3CCCC3)c2)n1 | 3.1 | 185 | 740 (≈ 1990 µM) | 2 | 17 | 2.86
2 | CNc1cc(C)nc(Nc2ccc(OC)c(C3=CCNCCC3)c2)n1 | 1.4 | 32.3 | 680 (≈ 2000 µM) | 0 | 40 | 3.15
